This note sets out measurements from US20230263826A1, “Compositions and Methods for Treatment and Prevention of Type 1 Diabetes” (The UAB Research Foundation, priority 2021, published 2023).

Format in all cases: in vivo, mouse
Test [1] concerns female NOD mice. In words: T1D incidence in female NOD mice administered FKGK18 (weekly blood glucose monitoring). The procedure: FIGS. 1A-1M show the effects of temporal FKGK18 regimen on T1D incidence and islet phenotype, wherein female NOD mice were administered FKGK18 (20 mg/kg, 3 × weekly) or vehicle (PBS-T) starting at 4 or 8 weeks of age. FIGS. 1A and 1B show diabetes incidence; blood glucose was monitored weekly in the 4-week (FIG. 1A; n = 17 and 15 for PBS-T and FKGK18 groups, respectively) and 8-week (FIG. 1B; n = 15 each in the PBS-T and FKGK18 groups) regimen groups for up to 30 weeks. Two consecutive readings of ≥ 275 mg/dL were recorded as onset of T1D (^†P < 0.05). FIGS. 1C-1F show glucose tolerance test (GTT) results, wherein overnight fasted mice were administered glucose (2 g/kg, i.p.), glucose levels in blood from tail vein were monitored over a 2-hour period, and AUC were generated. FIGS. 1C and 1D show four-week group at 14 weeks of age; n = 5 each in the PBS-T and FKGK18 groups. FIGS. 1E and 1F show eight-week group at 25 weeks of age; n = 7 and 5 for PBS-T and FKGK18 groups, respectively. FIGS. 1G-1I show phenotype parameters in the 8-week regimen group. […] FIGS. 1H and 1I show β Cell mass (PBS-T, n = 15; FKGK18, n = 14) (FIG. 1H) and circulating insulin (n = 15 in each group) (FIG. 1I) were determined at sacrifice (PBS-T, 14-30 weeks of age; FKGK18, 16-36 weeks of age). FIGS. 1J and 1K show islet infiltration; paraffin sections (10 µm) of pancreas were prepared and stained with H&E. Percent infiltration for each islet was calculated as the value of noninfiltrated area subtracted from total islet area (% infiltrate = 100 × [(total area - noninfiltrated area)/(total area)]) using ImageJ software. (PBS-T, n = 14 and 166 islets; FKGK18, n = 15 and 260 islets). […] FIGS. 1L and 1M show islet immune cell phenotype; paraffin sections (10 µm) of pancreas were prepared and stained for CD4+-T cells or B (B220) cells. Data presented are mean ± SEM of CD4+ T cells or B cells per islet. […] Statistical analyses: (FIGS. 1A and 1B) Mantel-Cox test; (FIGS. 1D-1M) Student’s t test.
FIGS. 2A-2E show the effects of FKGK18-withdrawal regimen on T1D incidence and glucose tolerance, wherein female NOD mice were administered FKGK18 (20 mg/kg, 3 × weekly, n = 18) or vehicle (PBS-T, n = 17) starting at 10 days of age and until 14 weeks of age. […] FIGS. 2B and 2D show glucose tolerance test (GTT) results, assessed at 14 (FIG. 2B) and 25 (FIG. 2D) weeks of age (data are presented as mean ± SEM), as described in FIG. 1. FIGS. 2C and 2E show corresponding AUC. […]
Blood glucose levels were measured weekly via tail vein blood draw (2 µL) with Breeze 2 Blood Glucose Monitoring System (Bayer HealthCare). Diabetes incidence was based on 2 consecutive blood glucose readings ≥ 275 mg/dL, at which time the mouse was euthanized. […]

Test [2] concerns female NOD mice. In words: β cell mass and circulating insulin at sacrifice in FKGK18-treated NOD mice. The conditions noted are these: 8-week regimen group. The method, then: (§1) FIGS. 1A-1M show the effects of temporal FKGK18 regimen on T1D incidence and islet phenotype, wherein female NOD mice were administered FKGK18 (20 mg/kg, 3 × weekly) or vehicle (PBS-T) starting at 4 or 8 weeks of age. FIGS. 1A and 1B show diabetes incidence; blood glucose was monitored weekly in the 4-week (FIG. 1A; n = 17 and 15 for PBS-T and FKGK18 groups, respectively) and 8-week (FIG. 1B; n = 15 each in the PBS-T and FKGK18 groups) regimen groups for up to 30 weeks. Two consecutive readings of ≥ 275 mg/dL were recorded as onset of T1D (^†P < 0.05). FIGS. 1C-1F show glucose tolerance test (GTT) results, wherein overnight fasted mice were administered glucose (2 g/kg, i.p.), glucose levels in blood from tail vein were monitored over a 2-hour period, and AUC were generated. […] FIGS. 1H and 1I show β Cell mass (PBS-T, n = 15; FKGK18, n = 14) (FIG. 1H) and circulating insulin (n = 15 in each group) (FIG. 1I) were determined at sacrifice (PBS-T, 14-30 weeks of age; FKGK18, 16-36 weeks of age). FIGS. 1J and 1K show islet infiltration; paraffin sections (10 µm) of pancreas were prepared and stained with H&E. Percent infiltration for each islet was calculated as the value of noninfiltrated area subtracted from total islet area (% infiltrate = 100 × [(total area - noninfiltrated area)/(total area)]) using ImageJ software. […]

Test [3] deals with female NOD mice. The experiment in a line: Islet infiltration and islet immune cell phenotype (H&E, CD4+ T cell and B220 staining of pancreas sections). The conditions noted are these: 8-week regimen group. The procedure: as §1, with “generated. FIGS. 1C and 1D show four-week group at 14 weeks of age; n = 5 each in the PBS-T and FKGK18 groups. FIGS. 1E and 1F show eight-week group at 25 weeks of age; n = 7 and 5 for PBS-T and FKGK18 groups, respectively. FIGS. 1G-1I show phenotype parameters in the 8-week regimen group.” for “generated.”, “software. (PBS-T, n = 14 and 166 islets; FKGK18, n = 15 and 260 islets).” for “software.”
Blood glucose levels were measured weekly via tail vein blood draw (2 µL) with Breeze 2 Blood Glucose Monitoring System (Bayer HealthCare). Diabetes incidence was based on 2 consecutive blood glucose readings ≥ 275 mg/dL, at which time the mouse was euthanized. […] Pancreas section and islet images were captured on an Olympus IX81 microscope using cellSens Dimension software and analyzed using ImageJ software (NIH).

Take `O=C(CCCCc1ccc2ccccc2c1)C(F)(F)F` [FKGK18]: the “mice that remained diabetes free” value in the test with female NOD mice [1] (FKGK18 20 mg/kg i.p. 3 times/week starting at 4 weeks of age, monitored up to 30 weeks, PBS-T 80% T1D incidence) is 40%. The “T1D incidence vs corresponding PBS-T group” value with female NOD mice [1] (FKGK18 20 mg/kg i.p. 3 times/week starting at 8 weeks of age, modest delay) was “not significantly different”. Also, in the test with female NOD mice [1] (FKGK18 20 mg/kg i.p. 3 times/week starting at 10 days of age, by 25-30 weeks of age, vehicle 80%-90% diabetic, data not shown), the “NOD that developed T1D” value is on record as 10%-15%. Also, in the test with female NOD mice [1] (FKGK18 from 10 days until 14 weeks of age, then withdrawn, monitored up to 30 weeks), the “decreased T1D incidence after FKGK18 withdrawal” value is given as “not evident”. For the same compound, in the test on female NOD mice [2], the “β cell mass vs PBS-T” value is given as “similar”. In addition, the “circulating insulin vs PBS-T” value in the test with female NOD mice [2] (nonfasting) is listed as “higher”. In the test on female NOD mice [3], the “pancreatic islet abundance of B cells relative to PBS-T” value is given as “significantly reduced” and the “pancreatic islet abundance of CD4+ T cells relative to PBS-T” value was “significantly reduced”. The “islet infiltration vs PBS-T” value in the test on female NOD mice [3] (H&E pancreas sections) is given as “reduced”.
